According to PubChem BioAssay (NCI):
Several values for one entry are separate records, joined by “and”; a condition that tells them apart may be missing. Equal entries are not always repeated.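 Step 1: Grow cells in 96-well plates. Step 2: Expose to compound for 48 hours at 5 concentrations. Step 3: Interpolate endpoints linearly; if unreached, use highest concentration. GI50 = concentration required for 50% inhibition of growth. Definition used: TGI = concentration required for complete inhibition of growth.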

Experiments:
Experiment in all cases: DTP human tumour cell line panel, 48 h
PC-3 prostate = test system: PC-3 prostate
UACC-62 melanoma = test system: UACC-62 melanoma
HS 578T breast = test system: HS 578T breast
ACHN renal = test system: ACHN renal
T-47D breast = test system: T-47D breast
A498 renal = test system: A498 renal
UO-31 renal = test system: UO-31 renal
NCI-H460 lung = test system: NCI-H460 lung
RXF 393 renal = test system: RXF 393 renal
HL-60(TB) leukemia = test system: HL-60(TB) leukemia

## Cc1ccc(S(=O)(=O)Oc2ccc3c4c(c(=O)oc3c2)CCCCC4)cc1
PC-3 prostate
  GI50: 4.26 µM
  TGI: > 100 µM
UACC-62 melanoma
  GI50: 5.72 µM
  TGI: > 100 µM
HS 578T breast
  GI50: 96.2 µM
  TGI: > 100 µM
ACHN renal
  GI50: > 100 µM
  TGI: > 100 µM
T-47D breast
  GI50: 4.37 µM
  TGI: > 100 µM
A498 renal
  GI50: 6210 nM
  TGI: > 100 µM
UO-31 renal
  GI50: > 100 µM
  TGI: > 100 µM

## N#C/C(=C\c1ccc(Br)cc1)n1nnc2cccc(F)c21
PC-3 prostate
  GI50: 0.943 µM
  TGI: 3.17 µM
UACC-62 melanoma
  GI50: 1.35 µM
  TGI: 3.46 µM
HS 578T breast
  GI50: 2.5 µM
  TGI: 8.14 µM
ACHN renal
  GI50: 1.41 µM
  TGI: 3.48 µM
T-47D breast
  GI50: 1.08 µM
  TGI: 4.44 µM
NCI-H460 lung
  GI50: 1.97 µM
  TGI: 4.21 µM
A498 renal
  GI50: 2040 nM
  TGI: 4.23 µM
UO-31 renal
  GI50: 1.41 µM
  TGI: 2.72 µM
RXF 393 renal
  GI50: 1080 nM
  TGI: 2.64 µM

## COc1cc2c3c(n(CCCN4CCN(C)CC4)c(=O)c2cc1OC)-c1cc2c(cc1C3=O)OCO2
PC-3 prostate
  GI50: 15.8 µM
  TGI: 36.4 µM
UACC-62 melanoma
  GI50: 15.1 µM
  TGI: 34.2 µM
HL-60(TB) leukemia
  GI50: 19500 nM
  TGI: 57.6 µM
HS 578T breast
  GI50: 13.9 µM
  TGI: 73 µM
ACHN renal
  GI50: 10.1 µM
  TGI: 22.4 µM
NCI-H460 lung
  GI50: 5.8 µM
  TGI: 28.2 µM
UO-31 renal
  GI50: 20.6 µM
  TGI: 62.8 µM
RXF 393 renal
  GI50: 20500 nM
  TGI: 55 µM

## Cc1ccc(N=C2CSc3nnc(-c4csc5c4CCCC5)n3N2)cc1
PC-3 prostate
  GI50: 0.27 µM
  TGI: > 50 µM
UACC-62 melanoma
  GI50: 0.277 µM
  TGI: > 50 µM
HL-60(TB) leukemia
  GI50: 120 nM
  TGI: 0.298 µM
HS 578T breast
  GI50: 0.168 µM
  TGI: 40.2 µM
ACHN renal
  GI50: 2.94 µM
  TGI: > 50 µM
NCI-H460 lung
  GI50: 0.181 µM
  TGI: > 50 µM
A498 renal
  GI50: 98.8 nM
  TGI: 0.412 µM
UO-31 renal
  GI50: 0.43 µM
  TGI: > 50 µM
RXF 393 renal
  GI50: 162 nM
  TGI: > 50 µM

## COc1ncc(-c2nc3c(n2C(C)C)[C@H](c2ccc(Cl)cc2)N(c2cc(Cl)cn(C)c2=O)C3=O)c(OC)n1
PC-3 prostate
  GI50: 20.2 µM
  TGI: > 100 µM
UACC-62 melanoma
  GI50: 5.95 µM
  TGI: 28.4 µM
HL-60(TB) leukemia
  GI50: 31200 nM
  TGI: 99.7 µM
HS 578T breast
  GI50: 32.6 µM
  TGI: > 100 µM
ACHN renal
  GI50: 15.2 µM
  TGI: > 100 µM
T-47D breast
  GI50: 29.5 µM
  TGI: > 100 µM
NCI-H460 lung
  GI50: 22.8 µM
  TGI: > 100 µM
A498 renal
  GI50: 19200 nM
  TGI: 84.6 µM
UO-31 renal
  GI50: 5.83 µM
  TGI: 88.8 µM

## NC1=NC(c2ccccc2)N=C(Nc2ccccc2)N1 (stereo unspecified)
PC-3 prostate
  GI50: > 100 µM
  TGI: > 100 µM
UACC-62 melanoma
  GI50: > 100 µM
  TGI: > 100 µM
HL-60(TB) leukemia
  GI50: > 100000 nM
  TGI: > 100 µM
HS 578T breast
  GI50: 68.5 µM
  TGI: > 100 µM
ACHN renal
  GI50: > 100 µM
  TGI: > 100 µM
T-47D breast
  GI50: > 100 µM
  TGI: > 100 µM
NCI-H460 lung
  GI50: > 100 µM
  TGI: > 100 µM
A498 renal
  GI50: 11400 nM
  TGI: > 100 µM
RXF 393 renal
  GI50: > 100000 nM
  TGI: > 100 µM

## CCC(=O)OC1CCn2c1nc1c2C(=O)C(C)=C(N2CC2)C1=O (stereo unspecified)
PC-3 prostate
  TGI: 0.306 µM
UACC-62 melanoma
  GI50: 0.0231 µM
  TGI: 0.0577 µM and 0.127 µM
HL-60(TB) leukemia
  GI50: 169 nM
  TGI: 0.432 µM and 2.63 µM
HS 578T breast
  TGI: 0.78 µM
ACHN renal
  GI50: 0.0195 µM
  TGI: 0.0491 µM and 0.411 µM
NCI-H460 lung
  GI50: 0.0141 µM
  TGI: 0.0452 µM and 0.124 µM
A498 renal
  TGI: 0.106 µM
UO-31 renal
  TGI: 0.136 µM
RXF 393 renal
  GI50: 10.7 nM
  TGI: 0.026 µM and 0.111 µM

## CO[C@H]1[C@H](O)[C@H](O[C@H]2CC[C@@]3(C)[C@H](CC[C@@H]4[C@@H]3CC[C@]3(C)[C@@H](C5=CC(=O)OC5)CC[C@]43O)C2)O[C@@H](C)[C@@H]1O
PC-3 prostate
  GI50: 0.00525 µM
  TGI: 0.524 µM
UACC-62 melanoma
  TGI: 0.00312 µM and < 0.0104 µM
HL-60(TB) leukemia
  GI50: 1.75 nM
  TGI: 0.00363 µM
HS 578T breast
  TGI: < 0.0001 µM
ACHN renal
  TGI: 0.00152 µM
T-47D breast
  GI50: 0.00395 µM
  TGI: 0.0194 µM
NCI-H460 lung
  TGI: 0.00151 µM
A498 renal
  TGI: 0.0252 µM
UO-31 renal
  TGI: 0.00201 µM

## O=S(=O)(NC(=S)Nc1ccccc1)c1ccc(N2N=C3c4ccccc4CC3C2c2cccs2)cc1 (stereo unspecified)
PC-3 prostate
  GI50: 22.9 µM
  TGI: 54.4 µM
UACC-62 melanoma
  GI50: 18.5 µM
  TGI: 37.3 µM
HS 578T breast
  GI50: 20.9 µM
  TGI: 68 µM
ACHN renal
  GI50: 26.4 µM
  TGI: 67.7 µM
T-47D breast
  GI50: > 100 µM
  TGI: > 100 µM
NCI-H460 lung
  GI50: 24.6 µM
  TGI: > 100 µM
UO-31 renal
  GI50: 51.2 µM
  TGI: > 100 µM
RXF 393 renal
  GI50: 78100 nM
  TGI: > 100 µM

## Cc1ccc(NS(=O)(=O)c2cc(C(C)(C)C)ccc2OCCOCCOCCOc2ccc(C(C)(C)C)cc2S(=O)(=O)Nc2ccc(C)cc2)cc1
UACC-62 melanoma
  TGI: > 100 µM
HL-60(TB) leukemia
  TGI: > 100 µM
ACHN renal
  TGI: > 100 µM
NCI-H460 lung
  TGI: > 100 µM
A498 renal
  TGI: > 100 µM
UO-31 renal
  TGI: > 100 µM
RXF 393 renal
  TGI: > 100 µM

## Cc1cc(O)c2c(c1)C(=O)c1cc(O)cc(O)c1C2=O
PC-3 prostate
  GI50: 25 µM
  TGI: > 100 µM
UACC-62 melanoma
  GI50: 11.2 µM
  TGI: 38.1 µM
HL-60(TB) leukemia
  TGI: 76.5 µM
HS 578T breast
  GI50: 26.2 µM
  TGI: 82.4 µM
ACHN renal
  TGI: 73.3 µM
T-47D breast
  GI50: 21.2 µM
  TGI: > 100 µM
NCI-H460 lung
  TGI: > 78.4 µM
A498 renal
  TGI: 56.5 µM
RXF 393 renal
  TGI: > 100 µM

## O=C([O-])c1ccc2c(c1)-c1nc-2nc2[n-]c(nc3nc(nc4[n-]c(n1)c1ccc(C(=O)[O-])cc41)-c1cc(C(=O)[O-])ccc1-3)c1ccc(C(=O)[O-])cc21.[Fe+2]
UACC-62 melanoma
  GI50: > 50 µM
  TGI: > 50 µM
HL-60(TB) leukemia
  GI50: > 22900 nM
  TGI: > 30.5 µM
ACHN renal
  GI50: > 50 µM
  TGI: > 50 µM
NCI-H460 lung
  GI50: > 50 µM
  TGI: > 50 µM
A498 renal
  GI50: > 50000 nM
  TGI: > 50 µM
UO-31 renal
  GI50: > 50 µM
  TGI: > 50 µM
RXF 393 renal
  GI50: > 50000 nM
  TGI: > 50 µM

## COC(=O)c1c2c(c(C)[n+]([O-])c1C)C(=O)C=C(NCc1cccc(OC)c1)C2=O
PC-3 prostate
  GI50: 0.333 µM
  TGI: 2.73 µM
UACC-62 melanoma
  GI50: 0.25 µM
  TGI: 1.07 µM
HL-60(TB) leukemia
  GI50: 317 nM
  TGI: 1.15 µM
HS 578T breast
  GI50: 1.64 µM
  TGI: 6.25 µM
ACHN renal
  GI50: 1.01 µM
  TGI: 2.19 µM
T-47D breast
  GI50: 0.286 µM
  TGI: 1.62 µM
A498 renal
  GI50: 1310 nM
  TGI: 2.59 µM
UO-31 renal
  GI50: 1.13 µM
  TGI: 2.44 µM
RXF 393 renal
  GI50: 1270 nM
  TGI: 2.63 µM

## COc1ccc(/C=C(/C(=O)N2CCCC2)c2cc(OC)c(OC)c(OC)c2)cc1N
PC-3 prostate
  GI50: 2.1 µM
  TGI: > 100 µM
UACC-62 melanoma
  GI50: 1.03 µM
  TGI: > 100 µM
HL-60(TB) leukemia
  GI50: 2070 nM
  TGI: 7.65 µM
HS 578T breast
  GI50: 2.41 µM
  TGI: > 100 µM
ACHN renal
  GI50: 5.73 µM
  TGI: > 100 µM
T-47D breast
  GI50: 3.91 µM
  TGI: > 100 µM
NCI-H460 lung
  GI50: 2.96 µM
  TGI: > 100 µM
A498 renal
  GI50: 1260 nM
  TGI: > 100 µM
UO-31 renal
  GI50: 6.87 µM
  TGI: > 100 µM

## Cc1c(O)c(=O)ccn1C1OC(CO)C(O)C1O (stereo unspecified)
UACC-62 melanoma
  TGI: > 100 µM
HL-60(TB) leukemia
  TGI: 56.3 µM
ACHN renal
  TGI: > 100 µM
NCI-H460 lung
  TGI: > 100 µM
A498 renal
  TGI: > 100 µM
UO-31 renal
  TGI: > 100 µM
RXF 393 renal
  TGI: > 100 µM
